# Key:
# Homo sapiens = species on record: Homo sapiens; assay: (§1) Inhibition of LPS-induced NF-kappaB/AP-1 signalling cascade in human THP1-Blue-CD14 cells incubated for 24 hrs by quanti-blue SEAP assay; format: cell-based
# [1] = as §1; format: cell-based
# [2] = Cytotoxicity against human THP1-Blue-CD14 cells assessed as reduction in cell viability after 24 hrs by CellTiter-Blue based fluorescence analysis
# [3] = Cytotoxicity against LPS-stimulated human THP1-Blue-CD14 cells assessed as reduction in cell viability after 24 hrs by CellTiter-Blue based fluorescence analysis
IC50 [1],Structure (SMILES),inhibition (Homo sapiens),IC50 [2],IC50 [3]
30.7 µM,CC(C)[C@H]1CC/C2=C/C(=O)CC[C@](C)(O[C@@H]3O[C@H](CO)[C@@H](O)[C@H](O)[C@H]3OC(=O)/C=C/c3ccccc3)C[C@@H]21,Dose-dependent effect,133 µM,46.4 µM
28.4 µM,C[C@@H]1CC[C@H](C(C)(C)O[C@@H]2O[C@H](CO)[C@@H](O)[C@H](O)[C@H]2OC(=O)/C=C/c2ccccc2)CC2=C1CC[C@H]2C,Dose-dependent effect,47.9 µM,35.2 µM

# Further lines, the compound ahead of its results:
Structure (SMILES),IC50 [1],inhibition (Homo sapiens),IC50 [2],IC50 [3]
CC(C)C1=CC[C@]2(C)[C@@H](O)CC[C@@](C)(O[C@@H]3O[C@H](CO)[C@@H](O)[C@H](O)[C@H]3OC(=O)/C=C/c3ccccc3)[C@H]2C1,20.8 µM,Dose-dependent effect,39.1 µM,29.5 µM
CC(C)[C@@H]1CC[C@@H](C)[C@@]23CC[C@](C)(O[C@@H]4O[C@H](CO)[C@@H](O)[C@H](O)[C@H]4OC(=O)/C=C/c4ccccc4)[C@@H]2[C@@H]13,13.7 µM,Dose-dependent effect,29.2 µM,21.6 µM
C=C1CC[C@@H](C(C)C)/C=C/[C@@](C)(O[C@@H]2O[C@H](CO)[C@@H](O)[C@H](O)[C@H]2OC(=O)/C=C/c2ccccc2)CCC1=O,49 µM,Dose-dependent effect,–,154 µM

# From ChEMBL document CHEMBL4414624, “Terpenoids from the Stems of Fissistigma polyanthoides and Their Anti-Inflammatory Activity” (J Nat Prod, 2019)
